Results reported in the NIST ThermoML archive (doi:10.1016/j.jct.2013.09.017).

How the values were obtained:
[1] = 101 kPa, Liquid; for viscosity: Capillary tube (Ostwald / Ubbelohde) method; for mass density: Vibrating tube method
[2] = xn = mol fraction of the nth substance listed; details: 101 kPa, Liquid; for viscosity: Capillary tube (Ostwald / Ubbelohde) method; for mass density: Vibrating tube method

CCCCCCCCCC [decane]
[1]
Details | mass density [kg/m3] | viscosity [mPa·s]
283.15 K | 737.54 | 1.082
293.15 K | 730.01 | 0.925
298.15 K | 726.22 | 0.858
303.15 K | 722.44 | 0.797

CCCCCCCCCC [decane] + CCCCCCCCN(CCCCCCCC)CCCCCCCC
[2], x2 = 0
Details | mass density [kg/m3] | viscosity [mPa·s]
283.15 K | 737.54 | 1.082
293.15 K | 730.01 | 0.925
303.15 K | 722.44 | 0.797

CCCCCCC [heptane]
[1]
Details | mass density [kg/m3] | viscosity [mPa·s]
283.15 K | 692.44 | 0.469
293.15 K | 684.05 | 0.42
298.15 K | 679.78 | 0.397
303.15 K | 675.54 | 0.377

CCCCCCC [heptane] + CCCCCCCCN(CCCCCCCC)CCCCCCCC
[2], x2 = 0
Details | mass density [kg/m3] | viscosity [mPa·s]
283.15 K | 692.44 | 0.469
293.15 K | 684.05 | 0.42
303.15 K | 675.54 | 0.377

CCCCCCCCC [nonane]
[1]
Details | mass density [kg/m3] | viscosity [mPa·s]
283.15 K | 725.58 | 0.826
293.15 K | 717.86 | 0.713
298.15 K | 713.95 | 0.667
303.15 K | 710.06 | 0.623

CCCCCCCCC [nonane] + CCCCCCCCN(CCCCCCCC)CCCCCCCC
[2], x2 = 0
Details | mass density [kg/m3] | viscosity [mPa·s]
283.15 K | 725.58 | 0.826
293.15 K | 717.86 | 0.713
303.15 K | 710.06 | 0.623

CCCCCCCC [octane]
[1]
Details | mass density [kg/m3] | viscosity [mPa·s]
283.15 K | 710.61 | 0.613
293.15 K | 702.6 | 0.541
298.15 K | 698.55 | 0.51
303.15 K | 694.5 | 0.481

CCCCCCCC [octane] + CCCCCCCCN(CCCCCCCC)CCCCCCCC
[2], x2 = 0
Details | mass density [kg/m3] | viscosity [mPa·s]
283.15 K | 710.61 | 0.613
293.15 K | 702.6 | 0.541
303.15 K | 694.5 | 0.481

CCCCCCCCN(CCCCCCCC)CCCCCCCC [trioctylamine]
[1]
Details | mass density [kg/m3] | viscosity [mPa·s]
283.15 K | 817.08 | 14.25
293.15 K | 810.48 | 9.957
298.15 K | 807.26 | 8.392
303.15 K | 803.88 | 7.114

CCCCCCCCN(CCCCCCCC)CCCCCCCC [trioctylamine] + CCCCCCCC
[2]
Details | mass density, 283.15 K [kg/m3] | mass density, 293.15 K [kg/m3] | mass density, 303.15 K [kg/m3] | viscosity, 283.15 K [mPa·s] | viscosity, 293.15 K [mPa·s] | viscosity, 303.15 K [mPa·s]
x1 = 0.1044 | 737.14 | 729.58 | 721.95 | 1.045 | 0.899 | 0.78
x1 = 0.2005 | 755.2 | 747.83 | 740.4 | 1.63 | 1.356 | 1.145
x1 = 0.2992 | 769.49 | 762.3 | 755.07 | 2.385 | 1.933 | 1.593
x1 = 0.4001 | 780.98 | 773.93 | 766.85 | 3.399 | 2.665 | 2.145
x1 = 0.4977 | 789.85 | 782.91 | 775.97 | 4.545 | 3.491 | 2.734
x1 = 0.6012 | 797.54 | 790.72 | 783.87 | 5.969 | 4.482 | 3.46
x1 = 0.7015 | 803.68 | 796.94 | 790.09 | 7.556 | 5.594 | 4.231
x1 = 0.7978 | 808.69 | 802 | 795.3 | 9.424 | 6.848 | 5.092
x1 = 0.897 | 813.09 | 806.45 | 799.81 | 11.61 | 8.242 | 6.01
x1 = 1 | 817.08 | 810.48 | 803.88 | 14.25 | 9.957 | 7.114

CCCCCCCCN(CCCCCCCC)CCCCCCCC [trioctylamine] + CCCCCCCCC
[2]
Details | mass density, 283.15 K [kg/m3] | mass density, 293.15 K [kg/m3] | mass density, 303.15 K [kg/m3] | viscosity, 283.15 K [mPa·s] | viscosity, 293.15 K [mPa·s] | viscosity, 303.15 K [mPa·s]
x1 = 0.1015 | 746.06 | 738.6 | 731.08 | 1.277 | 1.072 | 0.918
x1 = 0.2014 | 761.56 | 754.29 | 746.99 | 1.932 | 1.588 | 1.326
x1 = 0.3016 | 773.78 | 766.67 | 759.52 | 2.701 | 2.163 | 1.766
x1 = 0.3988 | 783.37 | 776.38 | 769.35 | 3.656 | 2.862 | 2.273
x1 = 0.4969 | 791.34 | 784.45 | 777.53 | 4.815 | 3.685 | 2.881
x1 = 0.5956 | 798.14 | 791.33 | 784.51 | 6.134 | 4.579 | 3.514
x1 = 0.6953 | 803.91 | 797.16 | 790.4 | 7.725 | 5.664 | 4.267
x1 = 0.7943 | 808.76 | 802.07 | 795.37 | 9.548 | 6.874 | 5.069
x1 = 0.9025 | 813.41 | 806.77 | 800.13 | 11.89 | 8.466 | 6.161
x1 = 1 | 817.08 | 810.48 | 803.88 | 14.25 | 9.957 | 7.114

CCCCCCCCN(CCCCCCCC)CCCCCCCC [trioctylamine] + CCCCCCCCCC
[2]
Details | mass density, 283.15 K [kg/m3] | mass density, 293.15 K [kg/m3] | mass density, 303.15 K [kg/m3] | viscosity, 283.15 K [mPa·s] | viscosity, 293.15 K [mPa·s] | viscosity, 303.15 K [mPa·s]
x1 = 0.1113 | 755.32 | 748.01 | 740.66 | 1.64 | 1.371 | 1.152
x1 = 0.1979 | 766.34 | 759.17 | 751.96 | 2.266 | 1.837 | 1.514
x1 = 0.297 | 776.77 | 769.72 | 762.64 | 3.092 | 2.448 | 1.976
x1 = 0.3974 | 785.51 | 778.56 | 771.59 | 4.092 | 3.172 | 2.515
x1 = 0.5044 | 793.3 | 786.44 | 779.56 | 5.402 | 4.086 | 3.174
x1 = 0.5913 | 798.73 | 791.93 | 785.11 | 6.558 | 4.896 | 3.743
x1 = 0.6888 | 804.03 | 797.29 | 790.53 | 8.006 | 5.85 | 4.389
x1 = 0.7962 | 809.11 | 802.43 | 795.73 | 9.857 | 7.086 | 5.238
x1 = 0.8991 | 813.37 | 806.73 | 800.09 | 11.97 | 8.401 | 6.09
x1 = 1 | 817.08 | 810.48 | 803.88 | 14.25 | 9.957 | 7.114
